For orientation: AC50 means the concentration giving half of the maximal activity seen. The term EC50 denotes the concentration giving half of the maximal effect. A word on the IC50: it is the concentration needed to halve the response being measured. A word on the CC50: it is the concentration at which the toxic effect on the cells reaches its halfway point.

This is an account of results in ChEMBL document CHEMBL1201862, “PubChem BioAssay data set” (2004).

Test [1] is described as follows: inhibitors of clade B AD8 Env fusion, dose response, cell-based, cherry-pick (AID 652062).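 Further: luciferase signal from cell-cell fusion driven by HIV-1 clade B AD8 Env; potency is for inhibitors of fusion seen as a drop in luminescence.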 It counts as functional.
Test [2] in a line: off-target signal loss in HeLa-CEM21 co-culture – HeLa F-luc CTL cells, cherry-picked, counter-screen for HIV-1 Env fusion inhibitor project, dose response (AID 652040).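 Further: potency for signal decrease marking cytotoxic or nonspecific inhibition.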 It counts as functional, cell-based. (In general: A counterscreen serves to expose hits that act by an unwanted route or on another target.)
A short description of test [3]: ZM109 Env clade C HIV-1 fusion inhibitors, dose response, HeLa effector, CEM target cells, luciferase, cherry-pick (AID 652058). It counts as functional, cell-based.
The nature of test [4]: inhibitors of HIV Env-driven cell fusion, dose response, cherry-pick (AID 652057). It counts as functional, cell-based.
Test [5] has as its target T1, Histone-lysine N-methyltransferase NSD2 (Homo sapiens, UniProt O96028).
T1 sequence (O96028 whole entry): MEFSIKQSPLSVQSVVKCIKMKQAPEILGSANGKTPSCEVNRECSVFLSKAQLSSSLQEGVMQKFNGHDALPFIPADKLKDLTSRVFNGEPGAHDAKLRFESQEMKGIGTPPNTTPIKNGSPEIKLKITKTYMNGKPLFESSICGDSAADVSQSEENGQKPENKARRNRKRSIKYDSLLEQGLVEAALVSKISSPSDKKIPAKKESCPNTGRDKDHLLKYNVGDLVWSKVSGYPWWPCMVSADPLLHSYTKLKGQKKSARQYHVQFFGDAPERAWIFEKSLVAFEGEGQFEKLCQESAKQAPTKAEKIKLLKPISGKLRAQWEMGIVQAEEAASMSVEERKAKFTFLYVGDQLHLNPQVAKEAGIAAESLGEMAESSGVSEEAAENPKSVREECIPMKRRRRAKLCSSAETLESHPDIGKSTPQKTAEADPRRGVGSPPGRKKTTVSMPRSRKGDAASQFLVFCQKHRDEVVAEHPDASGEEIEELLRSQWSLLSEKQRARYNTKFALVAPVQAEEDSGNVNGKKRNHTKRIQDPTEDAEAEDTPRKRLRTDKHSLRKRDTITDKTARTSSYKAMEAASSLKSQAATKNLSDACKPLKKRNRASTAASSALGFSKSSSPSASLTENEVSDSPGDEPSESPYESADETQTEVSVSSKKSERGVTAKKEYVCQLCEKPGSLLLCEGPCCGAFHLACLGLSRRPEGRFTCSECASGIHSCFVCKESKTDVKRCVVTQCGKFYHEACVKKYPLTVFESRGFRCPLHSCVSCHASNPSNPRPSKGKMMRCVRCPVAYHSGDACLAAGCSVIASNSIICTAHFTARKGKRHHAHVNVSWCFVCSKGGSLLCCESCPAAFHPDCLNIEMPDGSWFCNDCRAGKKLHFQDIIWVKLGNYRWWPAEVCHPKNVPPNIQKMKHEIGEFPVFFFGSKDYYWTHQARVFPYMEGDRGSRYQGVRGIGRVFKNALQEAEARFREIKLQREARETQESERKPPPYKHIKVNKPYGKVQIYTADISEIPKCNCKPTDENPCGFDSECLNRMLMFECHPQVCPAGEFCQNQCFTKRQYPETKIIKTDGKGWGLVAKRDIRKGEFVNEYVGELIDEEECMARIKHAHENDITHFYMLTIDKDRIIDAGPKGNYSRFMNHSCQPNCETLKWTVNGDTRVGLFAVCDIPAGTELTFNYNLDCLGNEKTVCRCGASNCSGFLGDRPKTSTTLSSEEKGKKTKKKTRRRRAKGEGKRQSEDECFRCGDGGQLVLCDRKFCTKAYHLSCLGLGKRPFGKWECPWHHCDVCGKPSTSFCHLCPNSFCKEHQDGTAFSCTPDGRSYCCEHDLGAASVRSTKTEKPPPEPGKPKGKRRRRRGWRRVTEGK
The class given is biochemical.

The nature of test [6]: A cytotoxicity screen of small molecule inhibitors of the PhoP region in Salmonella typhi identified in the primary screen. [Related pubchem assays: 1850, 1864, 1985 ]. It counts as functional.
The target of test [7] is T2, DNA repair protein RAD52 homolog (Homo sapiens, UniProt P43351).
T2 sequence (P43351 whole entry): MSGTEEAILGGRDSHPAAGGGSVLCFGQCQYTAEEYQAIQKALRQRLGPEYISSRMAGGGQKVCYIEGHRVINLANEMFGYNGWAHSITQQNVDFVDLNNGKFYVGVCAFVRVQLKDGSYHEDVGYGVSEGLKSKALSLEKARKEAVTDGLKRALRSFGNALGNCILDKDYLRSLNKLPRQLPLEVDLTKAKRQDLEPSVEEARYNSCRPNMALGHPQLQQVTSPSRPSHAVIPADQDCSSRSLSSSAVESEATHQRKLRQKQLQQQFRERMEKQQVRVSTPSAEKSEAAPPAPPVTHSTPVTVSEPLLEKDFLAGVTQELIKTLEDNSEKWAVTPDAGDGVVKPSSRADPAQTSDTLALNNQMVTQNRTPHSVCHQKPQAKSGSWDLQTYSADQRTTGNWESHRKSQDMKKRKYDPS
The class given is functional, biochemical.

Test [8] addresses Glyceraldehyde-3-phosphate dehydrogenase (Homo sapiens, UniProt P04406).
For test [9], the target named is T3, Ubiquitin-conjugating enzyme E2 N (Homo sapiens, UniProt P61088).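 Further: Dose-response confirmation in a TR-FRET assay detecting UBC13-driven polyubiquitin chain formation, inhibition measured.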
T3 sequence (P61088 whole entry): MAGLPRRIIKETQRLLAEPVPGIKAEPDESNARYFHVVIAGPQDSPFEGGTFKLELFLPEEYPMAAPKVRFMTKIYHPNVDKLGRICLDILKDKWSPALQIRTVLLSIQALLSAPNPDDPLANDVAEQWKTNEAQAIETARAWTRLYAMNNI
The class given is functional.

Test [10] deals with Glucose-6-phosphate 1-dehydrogenase (Homo sapiens, UniProt P11413). Description: human G6PD enzyme inhibitors, dose response, selectivity assay for P. falciparum G6PD inhibitor project, biochemical, fluorescence (AID 504792). The class given is functional.
The next test addresses Paired box protein Pax-8 (Homo sapiens, UniProt Q06710). Description: inhibitors of PAX8-driven TPO luciferase reporter, dose response, RMG-I cells, cherry-pick (AID 687027).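 Further: luciferase reporter driven by Pax8 target thyroperoxidase promoter measured by SteadyGlo luminescence.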 It counts as functional, cell-based. (In general: A reporter such as luciferase makes a cellular process visible.)
A further test concerns the target Nonstructural protein 1 (Influenza A virus, UniProt Q194T2). It counts as functional, Influenza A virus (A/California/07/2009(H1N1)).
The nature of test [11]: NIH-3T3 fibroblast cytotoxicity, dose response, cytotoxicity control, cell-based, fluorescence, Alamar Blue, secondary assay (AID 2327).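 Further: NIH-3T3 mouse fibroblasts cultured with fluconazole at 8 µg/mL.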 It counts as functional. On the technique in general: Resazurin is reduced to fluorescent resorufin, in cell work by metabolically active cells.
Test [12] is described as follows: C. albicans growth with fluconazole, confirmation, fluorescence, retest (AID 2467). It counts as functional, cell-based.
Another test in a line: cells. The class given is functional.
Test [13] in a line: THP-1 cell cytotoxicity, dose response, cytotoxicity control for non-replicating M. tuberculosis project (AID 489025). It counts as functional.

The source made the active and inactive calls.

Sequence of Nonstructural protein 1 (Q194T2 whole entry): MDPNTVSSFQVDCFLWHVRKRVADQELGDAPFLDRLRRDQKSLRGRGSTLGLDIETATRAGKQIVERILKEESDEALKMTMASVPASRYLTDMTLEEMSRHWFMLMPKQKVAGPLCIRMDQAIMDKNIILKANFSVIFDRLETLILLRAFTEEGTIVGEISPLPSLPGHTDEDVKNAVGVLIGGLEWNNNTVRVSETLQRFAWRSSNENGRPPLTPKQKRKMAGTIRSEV
Sequence of Glucose-6-phosphate 1-dehydrogenase (P11413 whole entry): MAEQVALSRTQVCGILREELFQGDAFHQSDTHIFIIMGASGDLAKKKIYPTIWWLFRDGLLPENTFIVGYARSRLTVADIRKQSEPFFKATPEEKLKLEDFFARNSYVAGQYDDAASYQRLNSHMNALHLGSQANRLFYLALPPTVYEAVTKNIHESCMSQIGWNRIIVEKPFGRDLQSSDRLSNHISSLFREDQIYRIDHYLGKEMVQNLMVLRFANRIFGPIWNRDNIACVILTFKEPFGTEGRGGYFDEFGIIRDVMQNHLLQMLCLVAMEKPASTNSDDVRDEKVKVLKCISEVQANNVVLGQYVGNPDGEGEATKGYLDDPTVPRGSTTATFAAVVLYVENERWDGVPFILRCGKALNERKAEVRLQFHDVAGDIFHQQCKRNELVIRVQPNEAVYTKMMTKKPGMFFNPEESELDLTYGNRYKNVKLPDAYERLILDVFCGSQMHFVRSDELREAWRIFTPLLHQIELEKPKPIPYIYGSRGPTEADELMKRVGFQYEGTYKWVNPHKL
Sequence of Glyceraldehyde-3-phosphate dehydrogenase (P04406 whole entry): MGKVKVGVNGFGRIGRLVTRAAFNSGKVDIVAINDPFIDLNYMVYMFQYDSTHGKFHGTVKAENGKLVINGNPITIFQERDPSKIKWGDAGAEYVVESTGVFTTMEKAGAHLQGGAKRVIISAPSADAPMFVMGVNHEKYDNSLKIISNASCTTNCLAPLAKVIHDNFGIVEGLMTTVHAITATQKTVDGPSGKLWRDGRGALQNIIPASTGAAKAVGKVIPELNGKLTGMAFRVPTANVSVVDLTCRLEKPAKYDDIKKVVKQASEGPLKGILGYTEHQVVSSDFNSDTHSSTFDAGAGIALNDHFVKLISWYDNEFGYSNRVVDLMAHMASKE
Sequence of Paired box protein Pax-8 (Q06710 whole entry): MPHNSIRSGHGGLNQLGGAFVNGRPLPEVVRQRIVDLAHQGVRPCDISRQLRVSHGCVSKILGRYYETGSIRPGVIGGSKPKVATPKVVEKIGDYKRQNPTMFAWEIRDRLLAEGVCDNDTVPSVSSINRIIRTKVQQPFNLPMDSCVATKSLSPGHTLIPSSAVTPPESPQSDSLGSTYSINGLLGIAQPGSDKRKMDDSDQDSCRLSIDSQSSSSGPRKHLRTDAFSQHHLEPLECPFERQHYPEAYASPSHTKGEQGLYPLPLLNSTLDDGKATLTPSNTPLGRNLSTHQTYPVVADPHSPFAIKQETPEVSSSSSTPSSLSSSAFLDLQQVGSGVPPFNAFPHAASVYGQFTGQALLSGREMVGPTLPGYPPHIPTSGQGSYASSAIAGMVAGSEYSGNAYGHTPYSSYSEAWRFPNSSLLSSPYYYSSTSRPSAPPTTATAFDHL

Consider `COc1ccc([C@@H]2[C@@H]3C(=O)N(C(C)(C)C)C(=O)[C@@H]3[C@]3(CC(C)C)C(=O)N(c4cccc(F)c4)C(=O)N23)cc1`, for which the concentration at half-maximal activity (AC50) in [1], in test [2], in [3] and in test [4] was < 0.26 µM (active) each time. On to `N#CC1C(=O)Nc2cccnc21` (stereo unspecified), for which the AC50 in [5] is > 20 µM (inactive). For the compound `CC(C)Cc1nc(N2CCOCC2)c(C#N)c2c1COC(C)(C)C2`, the EC50 in [6] is > 50 µM (active). On to `C#CCOCCOCCOCCNc1nc(N2CCN(C(=O)Cn3cc(CCCN=C(N)N)nn3)CC2)nc(N2CCN(C(=O)[C@H](CCCCN)n3cc(CCCC)nn3)CC2)n1`, for which the AC50 in test [7] is 34 µM (active).

On to `COc1cccc(-c2nnc(SCC(=O)O)[nH]2)c1`, for which, in test [8], the IC50 is given as > 100 µM (not active). With `CC(=O)O[C@H]1C[C@@H]2CC[C@@H]3[C@H](CC[C@@]4(C)[C@H]3C[C@H]([N+]3(C)CCCCC3)[C@@H]4OC(C)=O)[C@@]2(C)C[C@@H]1[N+]1(C)CCCCC1` [PANCURONIUM BROMIDE], the half-maximal activity concentration (AC50) in test [7] is 8.3 µM (active).

Turning to `CCOC(=O)COn1c(=O)c(-c2cccs2)[n+]([O-])c2ccccc21`, the concentration for a half-maximal effect (EC50) in [6] was > 50 µM (active). `O=C1C(Cl)=C(N2CCN(Cc3ccc4c(c3)OCO4)CC2)C(=O)N1c1cccc(C(F)(F)F)c1`: in test [8], the IC50 is > 50 µM (inconclusive). On to `CN(C)CCCN(C(=O)c1ccc(C(=O)c2ccccc2)cc1)c1nc2cc3c(cc2s1)OCO3`, for which, in [9], the IC50 is > 20 µM (inactive). In addition, in test [7], the AC50 was 7.81 µM (active). As for `COc1ccccc1NC(=O)Cn1nc(-c2ccncc2)nc1SCC(=O)NC1CCCC1`, in test [6], the EC50 is > 50 µM (active). `C/C(Cn1nnc([N+](=O)[O-])n1)=N\NC(=O)c1ccc(O)cc1`: the IC50 in [10] is > 80 µM (inactive). Take `O=C(C[C@H]1CC[C@H]2[C@@H](COC[C@@H](O)CN2Cc2ccc(F)cc2)O1)NCc1ccccc1Cl`: the AC50 on Paired box protein Pax-8 is 23.7 µM (active). Take `O=C(CN(c1cc(C(F)(F)F)ccc1Cl)S(=O)(=O)c1ccccc1)NCc1cccnc1`: the AC50 in [1] is 5.21 µM (active); in test [2], 3.81 µM (active); in test [3] it was 3.01 µM (active); in [4] it was 1.98 µM (active). Regarding `COCc1cc(CN2CCN(C)CC2)c(O)c2ncccc12`, the IC50 at Nonstructural protein 1 was 4.15 µM (active). The values for the EC50 in test [11] and in test [12] were > 160 µM (inactive) and > 38 µM (not active), respectively. Turning to `COc1cc(NCc2ccccc2)c2ncn(Cc3ccccc3)c2c1`, the IC50 in test [10] is > 80 µM (inactive).

As to `COc1ccccc1NC(=O)CSc1ccc(-c2ccccn2)nn1`, the 50% inhibitory concentration (IC50) on Nonstructural protein 1 is 7.99 µM (active). With `CCOc1ccc2[nH]c3c(c2c1)CNCC3`, the AC50 in test [7] was 26.8 µM (active). With `O=C(CCCOc1ccccc1)OCn1nnc2ccccc2c1=O`, in “cells”, the IC50 is 3.55 µM (active). Consider `COc1ccc2c(c1)CC1c3c(cc4c(c3-2)OCO4)CC[N+]1(C)[O-]` (stereo unspecified), for which the AC50 in test [7] was 3.38 µM (active). On to `CCN1CCCC1CNC(=O)c1ccc2c(c1)NC(=O)/C(=C\c1ccccc1F)S2` (stereo unspecified), for which, in test [7], the AC50 is 6.33 µM (active). In addition, in test [10], the IC50 was > 80 µM (inactive). For `CC1CCCCN1S(=O)(=O)c1ccc(S(=O)(=O)NCCc2ccncc2)cc1` (stereo unspecified), the EC50 in test [6] was > 50 µM (active). On to `COC(=O)[C@@]1(Cc2ccccc2)[C@H]2C(=O)N(Cc3ccccc3)C(=O)[C@H]2[C@H]2CN=C(SCc3ccc(C#N)cc3)N21`, for which the AC50 in [1] is 4.69 µM (active); in test [2] it was 4.57 µM (active); in test [3] it was 3.83 µM (active); in test [4], 2.07 µM (active).

Consider `COc1cccc(NC(=O)CSc2nn3c(=O)c(C)nnc3s2)c1`, for which, at Nonstructural protein 1, the IC50 is 11.3 µM (active).

In the case of `Cc1cccc(C(=O)Nc2nnc(S(=O)(=O)N3CCOCC3)s2)c1`, the IC50 in test [10] is 54.4 µM (inactive).

Take `O=C(CN1CCN(S(=O)(=O)c2ccc(Cl)cc2)CC1)c1ccc(O)c(O)c1`: in test [5], the AC50 is 4.91 µM (active). On to `CC1(C)Cc2c(sc3nc4n(-c5ccccc5)c(=O)c(CCC(=O)O)nn4c(=O)c23)CO1`, for which the IC50 in test [10] was 34.1 µM (inactive). As to `CCCN(CCC)CCNC(=O)c1cc2c(-c3ccccc3F)nn(C)c2s1`, the AC50 in [5] is > 20 µM (inactive).

With `O=C(Nc1ccc(Cl)cn1)C1CCCN1S(=O)(=O)c1cccc2ccccc12` (stereo unspecified), the concentration at half-maximal activity (AC50) is 53.6 µM (active) in test [2] and 29.8 µM (active) in test [4]. With `CNCCCc1ccccc1`, in [5], the AC50 was > 20 µM (inactive).

Take `O=C(OCc1nnc(-c2ccccc2)o1)c1ccc(Br)o1`: the half-inhibitory concentration (IC50) in the test “cells” is 20.1 µM (active). `CCc1ccc(NC(=O)Nc2ccncc2)cc1`: the EC50 in [6] is > 50 µM (active). For `CCN(C[C@H]1N[C@@](CC)(C(=O)OC)[C@H]2C(=O)N(Cc3ccccc3)C(=O)[C@@H]12)S(=O)(=O)c1ccc(C(F)(F)F)cc1`, the AC50 in test [1] was 2.16 µM (active); in [2] it was 1.79 µM (active); in [3], 1.3 µM (active); in test [4], 1.3 µM (active). With `COc1ccc(OC)c(CCNC(=O)CS(=O)(=O)Cc2nc(-c3ccccc3C)oc2C)c1`, the half-maximal effective concentration (EC50) in [6] is > 50 µM (active).

For the compound `CCC(C)(C)NC(=O)C(c1ccc(C)cc1)N(CC1CCCO1)C(=O)c1csnn1` (stereo unspecified), the AC50 is 7.81 µM (active) in [1], 6.84 µM (active) in test [2], 2.82 µM (active) in test [3] and 4.81 µM (active) in test [4]. Regarding `CCc1ccc(Cc2cnc(NC(=O)C3=NCCN3)s2)cc1`, in test [13], the CC50 was > 40 µM (active). For the same compound, the IC50 in the test “cells” was 9.25 µM (active).
